Molecular target: T1, KRAS G12C 1-169, his-tagged protein, GDP-loaded (Homo sapiens, UniProt P01116, G12C)
T1 construct: KRAS G12C 1-169, his-tagged protein, GDP-loaded; His tag
Experiment: Biochemical assay: covalent modification of KRAS G12C, analysed by mass spectrometry (RapidFire/TOF or Q-Exactive); also: time not given here
Type: binding
Details: Modification activity, modification percentage from MS peak intensities
In short: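 GDP-loaded His-tagged KRAS G12C 1-169 (2 μM or 0.5 μM in 20 mM Hepes, 150 mM NaCl, 1 mM MgCl2) reacted with compound at 32 μM or 8 μM final (2% DMSO) for a set time, then quenched with formic acid. Percent covalent modification from deconvoluted intact-protein MS peak intensities (RapidFire/TOF or LC-Q Exactive).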

Row | SMILES | Binding %
1 | C=CC(=O)N1CC2(CCN(c3nc(C4CCOCC4)nc(-c4c(C)ccc5[nH]ncc45)c3C#N)C2)C1 [Compound I-196, 4-(2-acryloyl-2,6-diazaspiro[3.4]octan-6-yl)-6-(5-methyl-1H-indazol-4-yl)-2-(tetrahydro-2H-pyran-4-yl)pyrimidine-5-carbonitrile] | ++ (++ indicates binding activity from 50 to 85%)
2 | C=CC(=O)N1CC2(CCN(c3nc(N4CCC(N5CCN(C)C6(CC6)C5)CC4)nc(-c4c(C)ccc5cnn(C)c45)c3C#N)C2)C1 [Compound I-197, 4-(2-acryloyl-2,6-diazaspiro[3.4]octan-6-yl)-6-(1,6-dimethyl-1H-indazol-7-yl)-2-(4-(4-methyl-4,7-diazaspiro[2.5]octan-7-yl)piperidin-1-yl)pyrimidine-5-carbonitrile] | +++ (+++ indicates binding activity greater than 85%)
3 | C=CC(=O)N1CC2(CCN(c3nc(N4CCC(N5CCN(C)[C@H](C)C5)CC4)nc(-c4c(C)ccc5cnn(C)c45)c3C#N)C2)C1 [Compound I-198, 4-(2-acryloyl-2,6-diazaspiro[3.4]octan-6-yl)-6-(1,6-dimethyl-1H-indazol-7-yl)-2-(4-((R)-3,4-dimethylpiperazin-1-yl)piperidin-1-yl)pyrimidine-5-carbonitrile] | +++ (+++ indicates binding activity greater than 85%)
4 | C=CC(=O)N1CC2(CCN(c3c(OC[C@@H]4CCCN4C)ncc(-c4c(C)ccc5[nH]ncc45)c3C#N)C2)C1 [Compound I-199, 3-(2-acryloyl-2,6-diazaspiro[3.4]octan-6-yl)-5-(5-methyl-1H-indazol-4-yl)-2-(((S)-1-methylpyrrolidin-2-yl)methoxy)isonicoti-nonitrile] | ++ (++ indicates binding activity from 50 to 85%)
5 | Cc1ccc2[nH]ncc2c1-c1nc(N2CCOCC2)nc(N2CCC3(CN(C(=O)/C=C/CN4CCC4)C3)C2)c1C#N [Compound I-200, (E)-4-(2-(4-(azetidin-1-yl)but-2-enoyl)-2,6-diazaspiro[3.4]octan-6-yl)-6-(5-methyl-1H-indazol-4-yl)-2-morpholinopyrimidine-5-carbonitrile] | ++ (++ indicates binding activity from 50 to 85%)
6 | C=CC(=O)N1CC2(CCN(c3nc(C(=O)N4CCOCC4)nc(-c4c(C)ccc5[nH]ncc45)c3C#N)C2)C1 [Compound I-201, 4-(2-acryloyl-2,6-diazaspiro[3.4]octan-6-yl)-6-(5-methyl-1H-indazol-4-yl)-2-(morpholine-4-carbonyl)pyrimidine-5-carbonitrile] | + (+ indicates binding activity greater than 0% and up to 50%)
7 | C=CC(=O)N1CC2(CCN(c3nc(C(N)=O)nc(-c4c(C)ccc5[nH]ncc45)c3C#N)C2)C1 [Compound I-202, 4-(2-acryloyl-2,6-diazaspiro[3.4]octan-6-yl)-5-cyano-6-(5-methyl-1H-indazol-4-yl)pyrimidine-2-carboxamide] | + (+ indicates binding activity greater than 0% and up to 50%)
8 | C=CC(=O)N1CC2(CCN(c3nc(C(=O)N4CCN(C)CC4)nc(-c4c(C)ccc5[nH]ncc45)c3C#N)C2)C1 [Compound I-203, 4-(2-acryloyl-2,6-diazaspiro[3.4]octan-6-yl)-6-(5-methyl-1H-indazol-4-yl)-2-(4-methylpiperazine-1-carbonyl)pyrimidine-5-carbonitrile] | + (+ indicates binding activity greater than 0% and up to 50%)
9 | Cc1ccc2[nH]ncc2c1-c1nc(OC[C@@H]2CCCN2C)nc(N2CCC3(CN(C(=O)/C=C/CN(C)C)C3)C2)c1C#N [Compound I-204, 4-(2-((E)-4-(dimethylamino)but-2-enoyl)-2,6-diazaspiro[3.4]octan-6-yl)-6-(5-methyl-1H-indazol-4-yl)-2-(((S)-1-methylpyrrolidin-2-yl)methoxy)pyrimidine-5-carbonitrile] | + (+ indicates binding activity greater than 0% and up to 50%)
10 | Cc1ccc2[nH]ncc2c1-c1nc(OC[C@@H]2CCCN2C)nc(N2CCC3(CN(C(=O)/C=C/CN4CCC4)C3)C2)c1C#N [Compound I-205, 4-(2-((E)-4-(azetidin-1-yl)but-2-enoyl)-2,6-diazaspiro[3.4]octan-6-yl)-6-(5-methyl-1H-indazol-4-yl)-2-(((S)-1-methylpyrrolidin-2-yl)methoxy)pyrimidine-5-carbonitrile] | + (+ indicates binding activity greater than 0% and up to 50%)
11 | C=CC(=O)N1CC2(CCN(c3nc(N4CCOCC4)nc(-c4c(C)ccc5[nH]nc(C6CC6)c45)c3C#N)C2)C1 [Compound I-206, 4-(2-acryloyl-2,6-diazaspiro[3.4]octan-6-yl)-6-(3-cyclopropyl-5-methyl-1H-indazol-4-yl)-2-morpholinopyrimidine-5-carbonitrile] | + (+ indicates binding activity greater than 0% and up to 50%)
12 | C=CC(=O)N1CC2(CCN(c3cnc(-c4ccccc4)c(-c4c(C)ccc5[nH]ncc45)c3C#N)C2)C1 [Compound I-207, 5-(2-acryloyl-2,6-diazaspiro[3.4]octan-6-yl)-3-(5-methyl-1H-indazol-4-yl)-2-phenylisonicotinonitrile] | ++ (++ indicates binding activity from 50 to 85%)
13 | C=CC(=O)N1CC2(CCN(c3cnc(-c4ccccc4)c(-c4c(C)ccc5cnn(C)c45)c3C#N)C2)C1 [Compound I-208, 5-(2-acryloyl-2,6-diazaspiro[3.4]octan-6-yl)-3-(1,6-dimethyl-1H-indazol-7-yl)-2-phenylisonicotinonitrile] | + (+ indicates binding activity greater than 0% and up to 50%)
14 | C=CC(=O)N1CC2(CCN(c3nc(N4CCC[C@@H]4CO)nc(-c4c(C)ccc5[nH]ncc45)c3C#N)C2)C1 [Compound I-209, 4-(2-acryloyl-2,6-diazaspiro[3.4]octan-6-yl)-2-((R)-2-(hydroxymethyl)pyrro-lidin-1-yl)-6-(5-methyl-1H-indazol-4-yl)pyrimidine-5-carbonitrile] | ++ (++ indicates binding activity from 50 to 85%)
15 | C=CC(=O)N1CC2(CCN(c3nc(N4CCC[C@H]4CO)nc(-c4c(C)ccc5[nH]ncc45)c3C#N)C2)C1 [Compound I-210, 4-(2-acryloyl-2,6-diazaspiro[3.4]octan-6-yl)-2-((S)-2-(hydroxymethyl)pyrro-lidin-1-yl)-6-(5-methyl-1H-indazol-4-yl)pyrimidin-5-carbonitrile] | + (+ indicates binding activity greater than 0% and up to 50%)
16 | C=CC(=O)N1CC2(CCN(c3nc(N4CCC[C@H](CO)C4)nc(-c4c(C)ccc5[nH]ncc45)c3C#N)C2)C1 [Compound I-211, 4-(2-acryloyl-2,6-diazaspiro[3.4]octan-6-yl)-2-((S)-3-(hydroxymethyl)piperi-din-1-yl)-6-(5-methyl-1H-indazol-4-yl)pyrimidine-5-carbonitrile] | ++ (++ indicates binding activity from 50 to 85%)
17 | C=CC(=O)N1CC2(CCN(c3nc(N4CCC[C@@H](CO)C4)nc(-c4c(C)ccc5[nH]ncc45)c3C#N)C2)C1 [Compound I-212, 4-(2-acryloyl-2,6-diazaspiro[3.4]octan-6-yl)-2-((R)-3-(hydroxymethyl)piper-idin-1-yl)-6-(5-methyl-1H-indazol-4-yl)pyrimidine-5-carbontrile] | ++ (++ indicates binding activity from 50 to 85%)
18 | C=CC(=O)N1CC2(CCN(c3nc(N4CCC(CN(C)C)CC4)nc(-c4c(C)ccc5[nH]ncc45)c3C#N)C2)C1 [Compound I-213, 4-(2-acryloyl-2,6-diazaspiro[3.4]octan-6-yl)-2-(4-((dimethylamino)meth-yl)piperidin-1-yl)-6-(5-methyl-1H-indazol-4-yl)pyrimidine-5-carbontrile] | +++ (+++ indicates binding activity greater than 85%)
19 | C=CC(=O)N1CC2(CCN(c3cnc(Oc4ccccc4)c(-c4c(C)ccc5[nH]ncc45)c3C#N)C2)C1 [Compound I-214, 5-(2-acryloyl-2,6-diazaspiro[3.4]octan-6-yl)-3-(5-methyl-1H-indazol-4-yl)-2-phenoxyisonicotinoni-trile] | ++ (++ indicates binding activity from 50 to 85%)
20 | C=CC(=O)N1CC2(CCN(c3cnc(Oc4ccccc4)c(-c4c(C)ccc5cnn(C)c45)c3C#N)C2)C1 [Compound I-215, 5-(2-acryloyl-2,6-diazaspiro[3.4]octan-6-yl)-3-(1,6-dimethyl-1H-indazol-7-yl)-2-phenoxyisonicotinoni-trile] | ++ (++ indicates binding activity from 50 to 85%)
21 | C=CC(=O)N1CC2(CCN(c3nc(N4CCC(N5CCN(C6CC6)CC5)CC4)nc(-c4c(C)ccc5cnn(C)c45)c3C#N)C2)C1 [Compound I-216, 4-(2-acryloyl-2,6-diazaspiro[3.4]octan-6-yl)-2-(4-(4-cyclopropylpiperazin-1-yl)piperidin-1-yl)-6-(1,6-dimethyl-1H-indazol-7-yl)pyrimidine-5-carbonitrile] | ++ (++ indicates binding activity from 50 to 85%)
22 | C=CC(=O)N1CC2(CCN(c3nc(N4CCC(N5CCN(C6CC6)CC5)CC4)nc(-c4c(C)ccc5[nH]ncc45)c3C#N)C2)C1 [Compound I-217, 4-(2-acryloyl-2,6-diazaspiro[3.4]octan-6-yl)-2-(4-(4-cyclopropylpiperazin-1-yl)piperidin-1-yl)-6-(5-methyl-1H-indazol-4-yl)pyrimidine-5-carbonitrile] | ++ (++ indicates binding activity from 50 to 85%)
23 | C=CC(=O)N1CC2(CCN(c3c(OCCCN(C)C)ncc(-c4c(C)ccc5[nH]ncc45)c3C#N)C2)C1 [Compound I-218, 3-(2-acryloyl-2,6-diazaspiro[3.4]octan-6-yl)-2-(3-(dimethylamino)pro-poxy)-5-(5-methyl-1H-indazol-4-yl)isonicotinonitrile] | ++ (++ indicates binding activity from 50 to 85%)
24 | C=CC(=O)N1CC2(CCN(c3nc(OCc4ccccn4)nc(-c4c(C)ccc5[nH]ncc45)n3)C2)C1 [Compound I-219, 1-(6-(4-(5-methyl-1H-indazol-4-yl)-6-(pyridin-2-ylmethoxy)-1,3,5-triazin-2-yl)-2,6-diazaspiro[3.4]octan-2-yl)prop-2-en-1-one] | + (+ indicates binding activity greater than 0% and up to 50%)

Reference: patent publication US12134620B2 (ARAXES PHARMA LLC, priority 2018, dated 2024)
